Laboratory results published in patent publication US20080153882A1, “Pharmaceutical Composition Comprising Ppar Regulator” (priority 2005, published 2008).

Test system: rat adjuvant arthritis model
Assay: Anti-arthritic action in rat adjuvant arthritis model (footpad volume increase suppression)
Assay type: in vivo
Conditions: female Lewis rats, oral once a day, Compound No. 1 0.1 mg/kg, Formula (II) 10.0 mg/kg; for Footpad volume increase suppression ratio (%) After 11 days: right hind leg volume on day 11 after start of administration; for Footpad volume increase suppression ratio (%) After 18 days: right hind leg volume on day 18 after start of administration
Protocol: A rat adjuvant arthritis model developing arthritis that is similar to human rheumatoid arthritis was used, and effect of the pharmaceutical composition according to the present invention with respect to the arthritis was evaluated by using footpad volume increase suppression rate as an indicator. Eight-week old female Lewis rats were used in the experiment.
Heat killed Mycobacterium butyricum was ground in an agate mortar, then suspended in dry heat sterilized liquid paraffin so as to have a concentration of 2 mg/ml, and treated with sonication to prepare an adjuvant.
The test compound was suspended or dissolved in a 0.5% tragacanth solution. As the test compound, the compound of Compound No. 1 described in Table 1 was used as the amino alcohol derivative, and the compound of the formula (II) was used as the PPAR regulator.
0.05 ml of the adjuvant prepared in (1) was injected subcutaneously into the footpad of right hind leg of rats, with respect to a control group and a test compound administration group. Here, 5 rats were used for each group. In addition, a normal control group was provided as a group without injection of the adjuvant.
The test compound prepared in (2) was orally administrated once a day in the amount of 5 ml/kg, […]. The control group was administered with only the 0.5% tragacanth solution in a similar manner.
After the start of administration, on day 11 and day 18, the volume of the right hind leg was measured by a leg volume measuring device, and the mean value of the swelling volume was calculated for each group.
The footpad volume increase suppression ratio (%) was calculated by the following equation, and evaluated.
Footpad volume increase suppression ratio (%)=(1-([footpad volume of test compound administration group]-[footpad volume of normal control group])/[footpad volume of control group]−[footpad volume of normal control group]))×100

SMILES	Footpad volume increase suppression ratio (%) After 11 days	Footpad volume increase suppression ratio (%) After 18 days
Cn1c(CC[C@@](C)(N)CO)ccc1C(=O)CCCCc1ccccc1 [Compound No. 1]	43.0%	44.8%
COc1ccc2nc(COc3ccc(CC4SC(=O)NC4=O)cc3)n(C)c2c1.Cl (stereo not shown) [Formula (II), 5-[4-(6-methoxy-1-methyl-1-H-benzimidazol-2-ylmethoxy)benzyl]thiazoline-2,4-dione hydrochloride]	24.7%	30.1%
